Patent US8975289B2, “Benzyl aralkyl ether compounds, method for preparing same, intermediate compounds, use of said compounds, method for treatment and/or prevention, pharmaceutical composition and medicament containing same” (priority 2009, dated 2015)
≈ marks a conversion by molar mass, not a printed value.

Experiments:
Type in all cases: cell-based
[1] = system: Trichophyton mentagrophytes 2; experiment: Broth microdilution MIC (M38-A), filamentous fungi, strain II
Protocol: (§1) For the experiments of the present invention, the dermatophyte-type fungi strains that were obtained from clinical isolates and laboratory isolates, as described in Table 2 as follows, were used:
(§2) The fungal strains were grown on agar potato medium in a sloping chute at a temperature of 30° C. for a period of 7 to 15 days.
(§3) For the experiments, the compound 1-[2-(2,4-dichlorophenyl)-2-{[4-(trifluoromethyl)benzyl]oxy}ethyl]-1H-imidazole (BL-123) in the form of its nitrate salt and miconazole nitrate were used. Both compounds were dissolved in dimethyl sulfoxide (DMSO) to match the final concentration of the compound equal to or less than 1%.
(§4) The methodology used to test the sensitivity of the agent was of broth microdilution according to the method described in Standard M38-A (Reference method for broth dilution tests for determining the sensitivity to antifungal therapy for filamentous fungi; NCCLS, volume 22 No. 16, USA, 2008) as follows.
(§5) The fungus was cultivated pursuant to item 4.1. To the tubes wherein the fungi were grown, 5 mL of saline solution were added in order to extract the fungi from the agar surface. Then, this homogeneous suspension was transferred to a new tube and the colony-forming units (CFUs) were quantified according to counting methods: (i) in Sabouraud dextrose agar plates and (ii) in a Neubauer chamber.
(§6) Then, the fungi strains listed in Table 2 were inoculated in duplicate in a 96-well plate. There were used inocula of from 2 to 6×10^3 CFU/mL of fungi, per well, in a total volume of 0.2 mL of RPMI-1640 (containing L-glutamine and without bicarbonate) buffered at pH 7.0 with MOPS (acid 3-(N-morpholine) 15 propanesulfonic). The procedure was performed in a laminar flow.
(§7) The compounds to be tested were added in a serial dilution, in duplicate, in final concentrations of 16 μg/mL; 8 μg/mL; 4 μg/mL; 2 μg/mL; 1 μg/mL; 0.5 μg/mL; 0.25 μg/mL; 0.125 μg/mL; 0.0625 μg/mL; or 0.03125 μg/mL in culture medium present in each well.
(§8) The incubation of fungi with these compounds was performed by 4, 5, 6 and 7 days at temperatures from 30 to 35° C.
(§9) The fungi quantification was carried out with the growth of fungi in each well being compared to the growth occurred in the negative control by means of a mirror reading. The negative control is represented by fungi grown in culture medium in the absence of the tested compounds. The methodology of this comparison is the numerical rating to which the microdilution well was submitted. […]

[2] = system: Trichophyton verrucosum 381; experiment: Broth microdilution MIC (M38-A), filamentous fungi, strain IV
Protocol: as §1, §2, §3, §4, §5, §6, §7, §8, §9

[3] = system: Trichophyton rubrum 455; experiment: Broth microdilution MIC (M38-A), filamentous fungi, strain VIII; conditions: for MIC: Trichophyton rubrum; for Resistance or sensitivity of the strain to the agent (in words): clinical isolate strain VIII
Protocol: as §1, §2, §3, §4, §5, §6, §7, §8
The fungi quantification was carried out with the growth of fungi in each well being compared to the growth occurred in the negative control by means of a mirror reading. The negative control is represented by fungi grown in culture medium in the absence of the tested compounds. The methodology of this comparison is the numerical rating to which the microdilution well was submitted. In this methodology, value 4 corresponds to no reduction of growth, value 3 corresponds to a slight reduction in growth or approximately 75% of the growth of the negative control, value 2 corresponds to a standout reduction in growth or approximately 50% of growth of negative control; value 1 corresponds to a slight growth or approximately 25% of the growth of the negative control, and value 0 corresponds to optically clear or absence of growth.
In this experiment, the minimum inhibitory concentration (MIC) is considered as the lowest concentration of the agent capable of inhibiting at least 80% of the growth of colony-forming units (CFUs).

[4] = system: Candida glabrata 2001; experiment: Broth microdilution MIC (M27-A2), yeast, strain XVI; conditions: Nakaseomyces glabratus; strain XVI 2001, 48 hours incubation; read-out: MIC
Protocol: For the experiments of the present invention (i) yeast strains obtained from clinical isolates and laboratory isolates, and (ii) bacterial strains obtained from laboratory isolates were used, as described in Table 5 as follows. The yeast strains were grown in culture medium Sabouraud Dextrose Agar maintained at a temperature of 35° C. for 48 hours. […] The compounds were dissolved in dimethyl sulfoxide (DMSO) to match the final concentration of the compound equal to or less than 1%. The methodology used to test the sensitivity of the agent was broth microdilution according to the method described in Standard M27-A2 (Reference method for broth dilution tests to determine the sensitivity of yeasts to antifungal therapy-second edition, NCCLS, volume 22 number 15, USA, 2002) as follows. […] Then the suspensions were diluted in culture medium RPMI-1640 (buffered with MOPS 0.165 mol/l) at a final concentration of 50 to 2500 CFU/mL. The diluted suspensions were inoculated in duplicate in a 96-well plate. The procedure was performed in a laminar flow. […] The incubation of fungi with these compounds was carried out for 48 hours at temperature of 30 to 35° C. […] We have agreed in this experiment that the turbid medium is the result of microbial growth and the presence of deposit and a clear medium represents the absence of microbial growth. The minimum inhibitory concentration (MIC) was defined as the lowest tested drug concentration that prevents any degree of […] growth.

[5] = 96 h, strain II 2, reading Day 4, average of four experiments
[6] = 168 h, strain II 2, reading Day 7, average of four experiments
[7] = 96 h, strain IV 381, reading Day 4, average of four experiments
[8] = 168 h, strain IV 381, reading Day 7, average of four experiments
[9] = 96 h, strain VIII 455, reading Day 4, average of four experiments
[10] = 168 h, strain VIII 455, reading Day 7, average of four experiments

SMILES | MIC [1, 5] | MIC [1, 6] | MIC [2, 7] | MIC [2, 8] | MIC [3, 9] | MIC [3, 10] | Resistance or sensitivity of the strain to the agent (in words) [3] | MIC [4]
FC(F)(F)c1ccc(COC(Cn2ccnc2)c2ccc(Cl)cc2Cl)cc1 (stereo not shown) [BL-123, 1-[2-(2,4-dichlorophenyl)-2-{[4-(trifluoromethyl)benzyl]oxy}ethyl]-1H-imidazole] | 4 µg/mL (≈ 9.63 µM) | 4 µg/mL (≈ 9.63 µM) | > 16 µg/mL | > 16 µg/mL | 4 µg/mL (≈ 9.63 µM) | 8 µg/mL (≈ 19.3 µM) | sensitive | 0.125 µg/mL (≈ 0.301 µM)
Clc1ccc(COC(Cn2ccnc2)c2ccc(Cl)cc2Cl)c(Cl)c1 (stereo not shown) [Miconazole, miconazole, reference compound] | 1 µg/mL (≈ 2.4 µM) | 1 µg/mL (≈ 2.4 µM) | > 16 µg/mL | > 16 µg/mL | > 16 µg/mL | > 16 µg/mL | resistant | 0.125 µg/mL (≈ 0.3 µM)
